Data set [1] relates to S. Typhimurium ATCC 14028. Description: Analysis of bacterial susceptibility to H2O2 (CFU). Format: cell-based, Salmonella enterica serovar Typhimurium. Conditions: SW14 0.5 μM, 1 h. The protocol: Overnight-grown S. Typhimurium cultured in LB medium were diluted 1:50 in LPM medium or LB medium followed by incubation at 37°C for 3 h. The bacterial suspension was adjusted to an OD600 of 0.2 in fresh LPM medium or LB medium, exposed to SW14 and H2O2 for 1 h at 37°C with agitation, then serially diluted 10-fold in PBS, and spread on LB agar plates. After incubation at 37°C for 18 h, the number of colonies was counted, and the results are expressed as CFU/mL.

Data set [2] in a line: HCA cytotoxicity toward infected macrophages (nuclear staining). In kind it is cell-based, murine. Conditions: mouse, RAW264.7 macrophages infected with S. Typhimurium, infected RAW264.7 cells, read-out: 50% cytotoxic concentration (CC50) toward macrophages. On the procedure: Overnight cultures of RFP-expressing S. Typhimurium were prepared for infection by 1:100 dilution in fresh LB broth and incubation for 2 h at 37°C. The bacteria were then collected by centrifugation at 6,000 × g for 3 min and suspended in phosphate-buffered saline (PBS; pH 7.2) to an optical density of 0.6 at 600 nm, which was equivalent to 5 × 10^8 CFU/mL. RAW264.7 macrophages were seeded in 96-well black clear-bottom plates (Greiner) and incubated for 20 h followed by infection with RFP-expressing S. Typhimurium at a multiplicity of infection (MOI) of 50 for 1 h. […] Afterward, the cells were washed and stained with CellTracker Green (Thermo Fisher Scientific) for 30 min in serum-free DMEM followed by fixation in 3.7% formaldehyde (Sigma-Aldrich) for 20 min and stained with 0.2 mg/L DAPI (4′,6-diamidino-2-phenylindole; AAT Bioquest) for 30 min. Images of individual wells were captured and analyzed using a high-content imaging system (ImageXpress Micro 4; Molecular Devices). The CC50 and 50% effective concentration (EC50) values against intracellular bacteria of each compound were determined using CalcuSyn software (Biosoft).

The source of these data is article PMC8635125, “A Novel Dibenzoxazepine Attenuates Intracellular Salmonella Typhimurium Oxidative Stress Resistance” (Microbiology Spectrum, 2021).

For the compound `Clc1ccc2c(c1)C(NCCN1CCNCC1)=Nc1ccccc1O2` [SW14], the “susceptibility of S. Typhimurium to H2O2” value in data set [1] (minimal LPM medium) is “significantly increased”; in data set [1] (nutrient-rich LB broth), “not in nutrient-rich LB broth”. In data set [2], the CC50 at 24 h worked out at 23.5 µM.
